Values belong to the compound of their own block, whether it stands above or below them. Calls of active or inactive are those of the source. No cut-off for these calls is given here.
Legend:
[1] = Prodrug activation in human HepG2 cells assessed as GSH bis-adduct formation by measuring green fluorescence at 10 uM incubated upto 30 mins by inverted fluorescence microscopy; format: cell-based; conditions: hepg2, 0.5 h
[2] = Prodrug activation in PBS at pH 7.4 assessed as GSH mono-adduct formation at 10 uM in presence of 1 mM GSH measured after 5 mins by LC-MS analysis; conditions: buffer, pH 7.4, 5 min
[3] = Prodrug activation in PBS at pH 7.4 assessed as rate of CPT release at 10 uM measured within 10 mins by fluorescence microscopy; conditions: buffer, pH 7.4, 10 min
[4] = Prodrug activation in PBS at pH 7.4 assessed as retention time of CPT at 10 uM in presence of 1 mM GSH by LC-MS analysis; conditions: buffer, pH 7.4, 10 µM
[5] = Prodrug activation in human HepG2 cells assessed as CPT release by measuring blue fluorescence at 10 uM incubated upto 30 mins by inverted fluorescence microscopy; format: cell-based; conditions: hepg2, 0.5 h
[6] = Prodrug activation in PBS at pH 7.4 assessed as GSH bis-adduct formation at 10 uM in presence of 1 mM GSH measured 10 mins by LC-MS analysis; conditions: buffer, pH 7.4, 10 min
[7] = Prodrug activation in PBS at pH 7.4 assessed as retention time of GSH mono-adduct formation at 10 uM in presence of 1 mM GSH by LC-MS analysis; conditions: buffer, pH 7.4, 10 µM
[8] = Prodrug activation in PBS at pH 7.4 assessed as retention time of prodrug at 10 uM in presence of 1 mM GSH by LC-MS analysis; conditions: buffer, pH 7.4, 10 µM
[9] = Prodrug activation in PBS at pH 7.4 assessed as retention time of GSH bis-adduct formation at 10 uM in presence of 1 mM GSH by LC-MS analysis; conditions: buffer, pH 7.4, 10 µM
[10] = Prodrug activation in human HepG2 cells assessed as retention time of prodrug by LC-MS analysis; format: cell-based
[11] = Prodrug activation in PBS at pH 7.4 assessed as CPT release at 10 uM measured within 30 mins by fluorescence microscopy; conditions: buffer, pH 7.4, 0.5 h
[12] = Stability of compound in mouse plasma assessed as prodrug remaining at 100 uM measured upto 12 hrs by HPLC analysis; format: ADME, cell-free
[13] = Prodrug activation in human HepG2 cells assessed as retention time of CPT by LC-MS analysis; format: cell-based
[14] = Prodrug activation in human HepG2 cells assessed as retention time of GSH bis-adduct formation at 10 uM treated for 1 hr in presence of 1 mM GSH by LC-MS analysis; format: cell-based; conditions: hepg2, 1 h
[15] = Prodrug activation in PBS at pH 7.4 assessed as CPT release at 10 uM in presence of 1 mM GSH measured after 5 mins by LC-MS analysis; conditions: buffer, pH 7.4, 5 min
BV-2 [16] = experiment: Cytotoxicity against mouse BV2 cells assessed as cell survival at less than 4 uM incubated for 24 hrs by MTT assay; format: toxicity, cell-based; conditions: bv-2, 24 h
[17] = Drug uptake in mouse brain assessed as penetration depth at 1 mM treated for 2 hrs by two-photon based fluorescence microscopy; format: ADME, tissue-based; conditions: in vivo, 1000 µM
[18] = Prodrug activation in PBS at pH 7.4 assessed as change in fluorescence signal at 10 uM incubated for 60 mins in presence of 1 mM cysteine by fluorescence based assay; conditions: buffer, pH 7.4, 1 h
[19] = Prodrug activation in PBS at pH 7.4 assessed as GSH-induced NO release by measuring increase in fluorescence at 10 uM in presence of 1 mM GSH; conditions: buffer, pH 7.4, 10 µM
BV-2 [20] = experiment: Neuroprotective activity against OGD-induced mouse BV2 cells assessed as increase in cell viability at 2 to 4 uM incubated for 4 hrs followed by reoxygenation by MTT assay; format: functional, cell-based; conditions: dose 2-4 µM
Astrocyte = experiment: Cytotoxicity against astrocyte cells assessed as cell survival upto 2 uM incubated for 24 hrs by MTT assay; format: toxicity, cell-based
[21] = Prodrug activation in human HepG2 cells assessed as bis-thiol adduct by measuring green fluorescence at 20 uM treated for 15 mins by fluorescence microscopy; format: cell-based; conditions: hepg2, 0.25 h
[22] = Drug uptake in zebrafish embryo assessed as penetration depth at 20 uM treated for 20 mins by two-photon based fluorescence microscopy; format: ADME, Danio rerio; conditions: in vivo
[23] = Prodrug activation in PBS at pH 6.5 to 9.0 at 10 uM incubated for 60 mins in presence of 1 mM GSH by fluorescence based assay; conditions: buffer, pH 6.5, 1 h
[24] = Prodrug activation in zebrafish assessed as NO release by measuring red fluorescence signal at 20 uM incubated for 20 mins by dRB-OPD staining based fluorescence microscopy; set-up: species or system Danio rerio
BV-2 [25] = experiment: Neuroprotective activity against OGD-induced mouse BV2 cells assessed as morphological change at 1 to 4 uM incubated for 4 hrs by fluorescence microscopy; format: functional, cell-based; conditions: dose 1-4 µM
BV-2 [26] = experiment: Cytotoxicity against mouse BV-2 cells assessed as cell survival upto 2 uM incubated for 24 hrs by MTT assay; format: toxicity, cell-based; conditions: bv-2, 24 h
[27] = Prodrug activation in PBS at pH 7.4 assessed as change in fluorescence signal at 10 uM incubated for 60 mins in presence of 1 mM homocysteine by fluorescence based assay; conditions: buffer, pH 7.4, 1 h
[28] = Prodrug activation in PBS at pH 7.4 assessed as decrease in compound at 10 uM incubated upto 60 mins in presence of 1 mM GSH by LC-MS analysis; conditions: buffer, pH 7.4, 1 h
[29] = Prodrug activation in PBS assessed as amount of GSH-activated NO release at 17 uM in presence of 1 mM GSH by Griess assay; conditions: buffer
[30] = Prodrug activation in zebrafish assessed as green fluorescence signal at 20 uM incubated for 20 mins by fluorescence microscopy; set-up: species or system Danio rerio
[31] = Prodrug activation in human HepG2 cells assessed as NO release by measuring red fluorescence at 20 uM treated for 15 mins by dRB-OPD staining based fluorescence microscopy; format: cell-based; conditions: hepg2, 0.25 h
[32] = Prodrug activation in PBS at pH 7.4 assessed as GSH bis-adduct at 10 uM incubated upto 60 mins in presence of 1 mM GSH by LC-MS analysis; conditions: buffer, pH 7.4, 1 h
[33] = Prodrug activation in PBS at pH 7.4 assessed as GSH-induced NO release by measuring increase in fluorescence at 10 uM incubated for 60 mins in presence of 1 mM GSH by fluorescence based assay; conditions: buffer, pH 7.4, 1 h
[34] = Prodrug activation in PBS assessed as increase in GSH-activated NO release at 10 uM in presence of 1 mM GSH measured for 40 mins by Griess assay; conditions: buffer

Drug metabolism [1]: Metabolite_Detected
Activity [2]: Active
Activity [3]: > 90%
Retention_time [4]: 10.2 min
Drug metabolism [5]: Metabolite_Detected
Activity [6]: Active
Retention_time [7]: 13.5 min
Retention_time [8]: 28.9 min
Retention_time [9]: 5.1 min
Retention_time [10]: 28.9 min
Activity [11]: Active
Stability [12]: > 60%
Retention_time [13]: 10.2 min
Retention_time [14]: 5.1 min
Activity [15]: Active
SMILES: C=C(COC(=O)O[C@]1(CC)C(=O)OCc2c1cc1n(c2=O)Cc2cc3ccccc3nc2-1)C(=O)c1ccc2cc(N(C)C)ccc2c1

Drug metabolism [17]: Metabolite_Detected
Activity [18]: Active
Activity [19]: Active
Drug metabolism [21]: Metabolite_Detected
Drug metabolism [22]: Metabolite_Detected
Activity [23]: Active
Drug metabolism [24]: Metabolite_Detected
Activity [27]: Active
Activity [28]: Active
Activity [29]: 85%
Stability [12]: > 60%
Drug metabolism [30]: Metabolite_Detected
Drug metabolism [31]: Metabolite_Detected
Activity [32]: Active
Activity [33]: Active
Activity [34]: Active
SMILES: C=C(CO/N=[N+](/[O-])N1CCCC1)C(=O)c1ccc2cc(N(C)C)ccc2c1
Activity (BV-2 [16]): Active
Activity (BV-2 [20]): Active
Activity (Astrocyte): Non-Toxic
Activity (BV-2 [25]): Active
Activity (BV-2 [26]): Non-Toxic
